Laboratory results: patent publication US20100317524A1, “Sulfonylureas” (Bayer CropScience AG, priority 2005, published 2010)

Assays:
[1] = test system: weed plants such as Sinapis alba, Chrysanthemum segetum, Avena sativa, Stellaria media, Echinochloa crus-galli, Lolium multiflorum, Setaria viridis, Abutilon …; assay: Pre-emergence effect on weeds (greenhouse pot test, visual scoring); format: in vivo; settings: applied pre-emergence at a rate of 0.3 kg or less of active substance per hectare; visual scoring after 3 to 4 weeks vs untreated controls
Description: Seeds or sections of rhizome from monocot and dicot weed plants were laid out in sandy loam soil in cardboard pots, and covered with soil. The compounds of the invention, formulated as wettable powders or emulsifiable concentrates, were then applied, in the form of aqueous suspensions or emulsions, at various dosages, onto the surface of the covering earth, at an application rate of 600 to 800 l of water per hectare (converted). Following the treatment, the pots were placed in a greenhouse and maintained under good growth conditions for the weeds. Visual scoring of the plant damage or emergence damage was made when the test plants had emerged, after a test time of 3 to 4 weeks, in comparison to untreated controls.

[2] = test system: weed plants such as Sinapis alba, Echinochloa crus-galli, Lolium multiflorum, Chrysanthemum segetum, Setaria viridis, Abutilon theophrasti, Amaranthus …; assay: Post-emergence effect on weeds (greenhouse pot test, visual scoring); format: in vivo; settings: applied post-emergence (three-leaf stage) at a rate of 0.3 kg or less of active substance per hectare; visual scoring after about 3 to 4 weeks vs untreated controls
Experimental: Seeds or sections of rhizome from monocot and dicot broadleaf weeds were laid out in sandy loam soil in plastic pots, covered with earth, and cultivated in a greenhouse under good growth conditions. Three weeks after sowing, the test plants were treated at the three-leaf stage. The compounds of the invention, formulated as wettable powders or as emulsion concentrates, were sprayed in different dosages onto the green parts of the plants, at an application rate of 600 to 800 l of water per hectare (converted). After the test plants had stood in the greenhouse under optimum growth conditions for a period of about 3 to 4 weeks, the effect of the products was scored visually in comparison to untreated controls.

SMILES	herbicidal action against weed plants, pre-emergence [1]	herbicidal action against weed plants, post-emergence [2]
COc1cc(OC)nc(NC(=O)NS(=O)(=O)c2c(I)cccc2OC)n1 [Compound 1.146, N-{[(4,6-Dimethoxypyrimidin-2-yl)amino]carbonyl}-2-iodo-6-methoxybenzenesulfonamide]	very good herbicidal action	very good herbicidal action
Cc1cc(C)nc(NC(=O)NS(=O)(=O)c2c(I)cccc2OC(F)F)n1 [Compound 1.329]	very good herbicidal action	very good herbicidal action
Cc1cc(C)nc(NC(=O)NS(=O)(=O)c2c(I)cccc2OC(C)C)n1 [Compound 1.186]	very good herbicidal action	very good herbicidal action
COc1nc(C)nc(NC(=O)NS(=O)(=O)c2c(F)cccc2I)n1 [Compound 1.002]	very good herbicidal action	very good herbicidal action
CSc1cccc(I)c1S(=O)(=O)NC(=O)Nc1nc(C)cc(C)n1 [Compound 1.550]	very good herbicidal action	very good herbicidal action
COc1nc(NC(=O)NS(=O)(=O)c2c(I)cccc2OC(F)(F)F)nc(OC)n1 [Compound 1.315]	very good herbicidal action	very good herbicidal action
COc1nc(NC(=O)NS(=O)(=O)c2c(C)cccc2I)nc(OC)n1 [Compound 1.025]	very good herbicidal action	very good herbicidal action
COc1nc(NC(=O)NS(=O)(=O)c2c(I)cccc2OC(C)C(F)(F)F)nc(OC)n1 (stereo not shown) [Compound 1.366]	very good herbicidal action	very good herbicidal action
COc1nc(NC(=O)NS(=O)(=O)c2c(OC)ccc(Cl)c2I)nc(OC)n1 [Compound 1.602]	very good herbicidal action	very good herbicidal action
COc1cc(OC)nc(NC(=O)NS(=O)(=O)c2c(I)cccc2OCC2CC2)n1 [Compound 1.229]	very good herbicidal action	very good herbicidal action
COc1cc(Cl)nc(NC(=O)NS(=O)(=O)c2c(I)cccc2OC(F)(F)F)n1 [Compound 1.311]	very good herbicidal action	very good herbicidal action
CCCOc1cccc(I)c1S(=O)(=O)NC(=O)Nc1nc(Cl)cc(OC)n1 [Compound 1.174]	very good herbicidal action	very good herbicidal action
CCCCOc1cccc(I)c1S(=O)(=O)NC(=O)Nc1nc(OC)cc(OC)n1 [Compound 1.192]	very good herbicidal action	very good herbicidal action
Cc1cc(C)nc(NC(=O)NS(=O)(=O)c2c(C)cccc2I)n1 [Compound 1.020]	very good herbicidal action	very good herbicidal action
